Laboratory results taken from patent US7303915B2, “In vitro-differentiated retinal ganglion cells and method for producing same” (Wisconsin Alumni Research Foundation, priority 2005, dated 2007).
Residues, ends and D or L forms follow the SMILES beside them. *: point of attachment. Cbz = O=C(OCc1ccccc1)*; CH2F = FC*

Key:
PKA = conditions: read-out: Ki protein kinase A; cited from earlier work
RGC-5 cells [1] = assay: Morphological differentiation and neurite count of RGC-5 cells; conditions: for rounding of the cell soma: specific kinase inhibitors on RGC-5 cells; for morphological evidence of differentiation: apoptosis inducer
Description: Cell culture: RGC-5 cells were cultured in Dulbecco's modification of Eagle's medium (DMEM; Mediatech, Inc.; Herndon, Calif.) containing 1 mg/L glucose with L-glutamine, supplemented with 10% FBS, 100 U/ml penicillin and 100 μg/ml streptomycin. Cells were incubated at 37° C. in humidified 5% CO2.
Pharmacological agents were used to induce or to inhibit various signaling pathways within RGC-5 cells. Cells were replated on 12 mm round cover glass in 24 well plates 24 hours prior to pharmacological treatment. Drugs were added for varying lengths of time and then processed for immunocytochemistry.
Cell morphology: Photomicrographs were taken at 400× total magnification with Nomarski optics, digitized as above, and stored as JPEG images. The pictures were then batch analyzed off-line to assess the development of neurites. A total of fifty cells from each condition were analyzed. The fifty cells assessed for neurite outgrowth in each condition were selected to include all cells in each photomicrograph for which the neurite tree was visible, and continuing with a new photomicrograph until fifty cells were analyzed. Projections from the cell were classified as neurites if they were equal or greater in length than the cell soma. Only branches arising from the soma were counted. The neurite counts were expressed as mean±S.E.M.

Rho-Kinase = conditions: cited from earlier work
RGC-5 cells [2] = assay: Nuclear condensation changes of apoptosis (Hoechst 33258); type: cell-based, rat; conditions: twenty-four hour incubation, Hoechst 33258 10 μg/ml for thirty minutes
RGC-5 cells [3] = assay: Cell number by MTT assay; type: cell-based, rat
Description: Cell number: Cells were plated in 96 well plates and 3-(4,5-dimethylthiazol-2-yl)-2,5-diphenyltetrazolium bromide (MTT) added immediately to a final concentration of 500 μg/ml. Plates were incubated for 5 hours at 37° C. The media was then replaced with 200 μl of DMSO, which was pipetted up and down to dissolve the formazan crystals, and the plate incubated at 37° C. for 5 minutes. Absorbance was measured at 550 nm on a THERMOmax™ microplate reader (Molecular Devices; Sunnyvale, Calif.). All readings were normalized to a standard curve derived from known numbers of cells.

NMDA-R1 = assay: Immunocytochemistry for NMDA-R1 in RGC-5 cells; type: cell-based, rat; conditions: differentiated vs undifferentiated cells, twenty-four hours
Description: (§1) Immunocytochemistry: Differentiated RGC-5 cells plated on coverslips were fixed with 4% paraformaldehyde (Fisher) in PBS, pH 7.2 for 20 minutes at room temperature, rapidly rinsed with Tris-buffered saline (TBS; 100 mM Tris, pH 7.6, 0.9% NaCl) 3 times for a few seconds each and 2 times for 5 minutes each, and blocked with 5% normal goat serum (BioWhittaker) in TBS for 30 minutes at room temperature. The NMDA-R1 receptor was detected by incubating with purified mouse monoclonal anti-NMDA-R1 antibody (BD Biosciences; San Jose, Calif.; clone 54.1) at 2.5 μg/ml overnight at room temperature, followed by Alexa Fluor™ 594 goat anti-mouse IgG at 10 μg/ml in blocking buffer at room temperature for 90 minutes. Alexa Fluor™ 594 fluorescence was detected with a Texas Red filter set (excitation 560±20 nm, dichroic 595 nm long-pass, emission 630±30 nm). Thy-1 was detected after fixing and blocking by incubating with rabbit anti-Thy-1 polyclonal IgG (Santa Cruz Biotechnology; Santa Cruz, Calif.) at 20 μg/ml overnight at 4° C., followed by Alexa Fluor 488 goat anti-rabbit IgG at 4 μg/ml at room temperature for 60 minutes. Alexa Fluor 488 fluorescence was detected with a FITC filter set (excitation 470±20 nm, dichroic 505 nm long-pass, emission 540±20 nm) filter set. […]

Thy-1 [4] = assay: Immunocytochemistry for Thy-1 in RGC-5 cells; type: cell-based, rat; conditions: differentiated vs undifferentiated cells, twenty-four hours
Description: as §1

RGC-5 cells [5] = assay: Whole-cell voltage-clamp recording of RGC-5 cells; type: cell-based, rat; conditions: for conductance of outward currents at +90 mV: after leak subtraction
Description: No series resistance compensation was used. Currents were low-pass filtered at 1-5 kHz with a four-pole Bessel filter, and digitized at a rate no less than twice the filter frequency. […] Analysis and curve fitting was also performed using AxoGraph.
Voltage-gated currents were studied by applying 10 ms voltage steps from −100 to +90 mV in 10 mV increments, from a holding potential of −60 mV. This protocol was run 2-6 times on each cell and the currents evoked at each potential were averaged. Passive leak and capacitive currents were removed by scaling the average current evoked at −70 mV, and subtracting the result from the average current obtained at each voltage. Current amplitudes were measured at steady-state (i.e., near the end of the voltage step), and the slope conductance was computed as the difference between successive amplitudes, divided by the 10 mV step increment.

[6] = test system: focal adhesion kinase (FAK) S722; assay: Kinetworks KPSS 2.1 phosphorylation screen, FAK S722; type: cell-based, rat; conditions: 1 μM for 5 minutes
Description: (§2) Cells were washed with ice-cold PBS, scraped, and centrifuged at 3,200 g for five minutes. The pellets were resuspended in lysis buffer (Kinexus Bioinformatics; Vancouver, BC, Canada) supplemented with 5 mM pepstatin A (Roche; Indianapolis, Ind.), and Complete mini protease inhibitor cocktail (Roche). The suspensions were sonicated on ice for two 15-second bursts, followed by centrifugation at 100,000 g for 30 minutes at 4° C. […] These were then transferred to nitrocellulose membranes. Using a twenty-lane multiblotter (BioRad; Hercules, Calif.), the membranes were incubated with different mixtures of up to three antibodies per lane that react with a distinct subset of at least thirty-seven known phosphorylated sites of cell signaling proteins of distinct molecular masses. After further incubation with a mixture of relevant HRP conjugated secondary antibodies (Santa Cruz Biotechnology), the blots were developed using ECL Plus reagent (Amersham Pharmacia; Piscataway, N.J.) and signals quantified using Quantity One software (BioRad). Detailed information and protocols of the Kinetworks™ analysis can be found at the Kinexus Bioinformatics Corporations website.

c-Kit Y703 = assay: Kinetworks KPSS 2.1 phosphorylation screen, c-Kit Y703; type: cell-based, rat; conditions: 1 μM for 5 minutes
Description: (§3) Analysis of kinasephosphorylation targets: Total cell lysates were prepared as described in Zhang H, et al., J Biol Chem 276:6905-6908 (2001). Cells were washed with ice-cold PBS, scraped, and centrifuged at 3,200 g for five minutes. The pellets were resuspended in lysis buffer (Kinexus Bioinformatics; Vancouver, BC, Canada) supplemented with 5 mM pepstatin A (Roche; Indianapolis, Ind.), and Complete mini protease inhibitor cocktail (Roche). The suspensions were sonicated on ice for two 15-second bursts, followed by centrifugation at 100,000 g for 30 minutes at 4° C. […] Bradford M M, Anal Biochem 72:248-254 (1976). These were then transferred to nitrocellulose membranes. Using a twenty-lane multiblotter (BioRad; Hercules, Calif.), the membranes were incubated with different mixtures of up to three antibodies per lane that react with a distinct subset of at least thirty-seven known phosphorylated sites of cell signaling proteins of distinct molecular masses. After further incubation with a mixture of relevant HRP conjugated secondary antibodies (Santa Cruz Biotechnology), the blots were developed using ECL Plus reagent (Amersham Pharmacia; Piscataway, N.J.) and signals quantified using Quantity One software (BioRad). Detailed information and protocols of the Kinetworks™ analysis can be found at the Kinexus Bioinformatics Corporations website.

ERK1 T202/Y204 = assay: Kinetworks KPSS 2.1 phosphorylation screen, ERK1 T202/Y204; type: cell-based, rat; conditions: 1 μM for 5 minutes
Description: as §3

CDK1 T14/Y15 = assay: Kinetworks KPSS 2.1 phosphorylation screen, CDK1 T14/Y15; type: cell-based, rat; conditions: 1 μM for 5 minutes
Description: as §3

MEK1 S298 = assay: Kinetworks KPSS 2.1 phosphorylation screen, MEK1 S298; type: cell-based, rat; conditions: 1 μM for 5 minutes
Description: as §2

PKR T451 = assay: Kinetworks KPSS 2.1 phosphorylation screen, PKR T451; type: cell-based, rat; conditions: 1 μM for 5 minutes
Description: as §3

Thy-1 [7] = assay: Immunoblot analysis of Thy-1 in RGC-5 cells; conditions: 316 nM for three days
Description: (§4) After transfer, the membrane was blocked with 5% non-fat milk in TBS (pH 8.0) for 30-60 minutes, and then probed with primary antibodies to RGC marker proteins in blocking buffer. Antibodies used included purified rabbit polyclonal anti-microtubule-associated protein 2 (1:2000; Chemicon; Temecula, Calif.), polyclonal rabbit anti-Thy-1 (1:100; Santa Cruz Biotechnology), and polyclonal rabbit anti-actin (1:1000; Sigma). Blots were rinsed 3 times with TBS containing 0.05% Tween-20 (Fisher Scientific), then washed 5 times for 10 minutes each at room temperature on an orbital shaker. Secondary antibodies used were purified HRP-conjugated goat anti-rabbit IgG and purified HRP-conjugated goat anti-mouse IgG (1:5000; Jackson Immunoresearch Laboratories; West Grove, Pa.), and were incubated for 1 hour at room temperature, followed by 3 rinses and five 10 minute washes with TBS containing Tween-20 at room temperature on an orbital shaker. […] The blots were then exposed to Kodak BioMax XAR film (Eastman Kodak Company; Rochester, N.Y.) and developed. The films were scanned at 1600 dpi and band density was determined by comparing total intensity in an area containing the band of interest to the intensity of an equal size area of background using NIH ImageJ software. Band density readings are presented with respect to the density of the band from the control, untreated cell condition.

[8] = test system: microtubule-associated protein 2 (MAP-2); assay: Immunoblot analysis of MAP-2 in RGC-5 cells; conditions: 316 nM for three days
Description: as §4

[9] = 1 hr [24 hr], cells with large conductance

O=S(=O)(NCCNC/C=C/c1ccc(Br)cc1)c1cccc2cnccc12 [H-89]
Ki (PKA): 50 nM
differentiation-inducing activity in RGC-5 cells (RGC-5 cells [1]): weak differentiation inducers
neurites expressed (RGC-5 cells [1]; RGC-5 cells, 56.2 μM): 1.80±0.16 neurites
rounding of the cell soma (RGC-5 cells [1]): did not produce rounding of the cell soma

Cc1cncc2cccc(S(=O)(=O)N3CCCNC[C@@H]3C)c12 [H-1152]
Ki (Rho-Kinase): 1.6 nM
differentiation-inducing activity in RGC-5 cells (RGC-5 cells [1]): weak differentiation inducers
neurites expressed (RGC-5 cells [1]; RGC-5 cells, 1 μM): 1.06±0.15 neurites
rounding of the cell soma (RGC-5 cells [1]): did not produce rounding of the cell soma

COC(=O)C[C@H](NC(=O)[C@H](C)NC(=O)[C@@H](NC(=O)OCc1ccccc1)C(C)C)C(=O)CF [ZVAD-fmk] (Cbz-Val-Ala-Asp(OMe)-CH2F)
effect of pretreatment on differentiation with SS (RGC-5 cells [1]): did not inhibit differentiation with SS
differentiation of undifferentiated cells by the agent alone (RGC-5 cells [1]; without staurosporine): did not differentiate

C[C@H](CCC(=O)O)C[C@H](C)C[C@H](C)C(=O)/C=C(\O)[C@H](C)C[C@H](C)C/C=C/[C@@H](C)[C@@H](O)[C@@H](C)[C@@H](O)C[C@@H]1CC[C@@](C)([C@H]2CC[C@@](C)([C@@H](C)O)O2)O1 [ionomycin]
nuclear condensation (Hoechst 33258) (RGC-5 cells [2]): induced nuclear condensation
morphological evidence of differentiation (RGC-5 cells [1]; 20 μM): None resulted in morphological evidence of differentiation

C=C(C)[C@H]1Cc2c(ccc3c2O[C@@H]2COc4cc(OC)c(OC)cc4[C@@H]2C3=O)O1 [rotenone]
morphological evidence of differentiation (RGC-5 cells [1]; 10 μM): None resulted in morphological evidence of differentiation

CN[C@@H]1C[C@H]2O[C@@](C)([C@@H]1OC)n1c3ccccc3c3c4c(c5c6ccccc6n2c5c31)C(=O)NC4 [staurosporine]
cell number (MTT) (RGC-5 cells [3]; 1 hour after culture): 7133±266 cells
cell number (MTT) (RGC-5 cells [3]; twenty-four hours): 10,094±1023 cells
NMDA-R1 labeling (NMDA-R1): visibly more intense staining
Thy-1 labeling (Thy-1 [4]): visibly more intense staining
conductance of outward currents at +90 mV (RGC-5 cells [5]; 1 hr [24 hr], untreated 3.1±0.5): 14±5 nS
apparent half-activation voltage (Boltzmann fit) (RGC-5 cells [5]; [9]): +48 mV
maximal conductance (Boltzmann fit) (RGC-5 cells [5]; [9]): 26 nS
apparent capacitance (RGC-5 cells [5]; 1 hr [24 hr], untreated 28±2): 31±5 pF
resting potential (RGC-5 cells [5]; 1 hr [24 hr], untreated −34±0.5): −27±9 mV
resting potential (RGC-5 cells [5]; 1 hr [48 hr]): −9±6 mV
conductance of outward currents at +90 mV (RGC-5 cells [5]; 1 hr [48 hr]): 7±3 nS
input resistance (RGC-5 cells [5]; 1 hr [48 hr], n=4): 322±89 MΩ
apparent capacitance (RGC-5 cells [5]; 1 hr [48 hr], p<0.05): 44±3 pF
apparent capacitance (RGC-5 cells [5]; 22 hr [2 hr]): 38±3
resting potential (RGC-5 cells [5]; 22 hr [2 hr]): −11±3
conductance of outward currents at +90 mV (RGC-5 cells [5]; 22 hr [2 hr]): 5±3 nS
nuclear condensation (Hoechst 33258) (RGC-5 cells [2]): the same as controls, with finely granular nuclei that were not compacted
increase in phosphorylation of S722 of FAK vs sham-treated cells [6]: 90%
increase in phosphorylation of c-Kit Y703 vs control (c-Kit Y703): 43%
phosphorylation of ERK1 T202/Y204 vs control (ERK1 T202/Y204): not present in control
increase in phosphorylation of CDK1 T14/Y15 vs control (CDK1 T14/Y15): 64%
decrease in phosphorylation of MEK1 S298 vs control (MEK1 S298): 100%
decrease in phosphorylation of PKR T451 vs control (PKR T451): 100%
Thy-1 level (Western blot) (Thy-1 [7]): increased levels
MAP-2 level (Western blot) [8]: increased levels
differentiation-inducing activity in RGC-5 cells (RGC-5 cells [1]): strong differentiation inducer
neurite branching (RGC-5 cells [1]; 316 nM): minimally branched neurites
differentiation after short exposure (RGC-5 cells [1]; 1 μM for sixty seconds, then fresh media until twenty-four hours from treatment): definite morphological signs of differentiation
concentrations frequently toxic (necrotic cell body, blebbing and disruption of the neurite tree) (RGC-5 cells [1]; RGC-5 cells): higher than 1.78 μM
neurites per cell (RGC-5 cells [1]; RGC-5 cells, 1 μM, average±SEM from 50 cells): 2.94±0.11 neurites per cell
average and total process length (RGC-5 cells [1]; high (3.16 μM) concentration): average and total process length decreased somewhat
neurite branching (RGC-5 cells [1]; high (3.16 μM) concentration): neurite branching was greater
average and total neurite outgrowth (RGC-5 cells [1]; moderate (1 μM) concentration): promoted longer average and total neurite outgrowth

C/C=C(/C)C(=O)O[C@H]1C(C)=C2[C@H]([C@@H]1OC(=O)CCCCCCC)[C@@](C)(OC(C)=O)C[C@H](OC(=O)CCC)[C@@]1(O)[C@H]2OC(=O)[C@@]1(C)O [thapsigargin, Thapsigargin]
cell shape (RGC-5 cells [1]; 10 μM): did cause cells to become more spindle-shaped
morphological evidence of differentiation (RGC-5 cells [1]; 10 μM): None resulted in morphological evidence of differentiation
